Earlier results in publication PMC6572427, “Peptosome Coadministration Improves Nanoparticle Delivery to Tumors through NRP1-Mediated Co-Endocytosis” (Biomolecules, 2019).

Settings: in vivo
Excerpt: Therefore, its fluorescence signal can be used to reflect the integrity of peptosomes and estimate the in vivo plasma stability. […] Blood was then collected at different time points after the injection as described in the methods, and the fluorescence signals were detected using an IVIS Spectrum in vivo ...

plasma half-life: eight
Sequence: CRGDKGPDC [iRGD]
